Common to all, as to assay type: cell-based
Experiment [1] concerns E. coli ATCC25922. In words: Antibacterial activity in combination with minocycline (growth inhibition). The following applies: Escherichia coli, ATCC25922, compound at 25 μM; minocycline 0.25 μg/mL; OD625 23 h minus 1 h; read-out: residual growth of E. coli ATCC25922 (% of uninhibited control) with minocycline. In short, it runs like this:
(§1)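 Test compound combined with fixed subinhibitory partner antibiotic: linezolid 128 μg/mL for either strain, minocycline 0.25 μg/mL (E. coli) or 8 μg/mL (P. aeruginosa), in caMHB shaken at 37 °C. Residual growth as % of inhibitor-free control, from OD625 at 23 h minus 1 h.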

Experiment [2] deals with P. aeruginosa PAO1. Kind of experiment: Antibacterial activity in combination with linezolid (growth inhibition). The following applies: Pseudomonas aeruginosa, PAO1, compound at 50 μM; linezolid 128 μg/mL; OD625 23 h minus 1 h; read-out: residual growth of P. aeruginosa PAO1 (% of uninhibited control) with linezolid. As to the method:
(§2) Antibacterial activity in combination with minocycline or with linezolid
(§3) Inhibition of growth was measured with E. coli ATCC25922 and P. aeruginosa PAO1 in a 96-well plate format. Cation-adjusted Müller-Hinton broth (caMHB) was inoculated with an overnight culture and incubated at 37° C. on a shaker until OD625 reached 0.6 to 0.7. Density was adjusted to OD600=0.5 by addition of caMHB. 35 μL of the suspension were diluted to 35 mL with caMHB and supplemented with minocycline at the subinhibitory doses of 0.25 μg/mL for E. coli and 8 μg/mL for P. aeruginosa or with linezolid at the subinhibitory dose of 128 μg/mL for E. coli and P. aeruginosa. Each well contained 1 μL of test compound in 100 μL caMHB with minocycline or with linezolid.
(§4) Plates were incubated at 37° C. on a plate shaker. OD625 was measured at 1 h, 6 h, and at 23 h.
(§5) The difference between OD at 23 h and at 1 h was taken as measure for cell density and compared to controls without inhibitor (i.e. uninhibited control). Results were expressed as residual growth (% of uninhibited control). Enhancement of minocycline or linezolid activity caused reduced residual growth.

Experiment [3] concerns P. aeruginosa PAO1. In words: Antibacterial activity in combination with minocycline (growth inhibition). The following applies: Pseudomonas aeruginosa, PAO1, compound at 50 μM; minocycline 8 μg/mL; OD625 23 h minus 1 h; read-out: residual growth of P. aeruginosa PAO1 (% of uninhibited control) with minocycline. In short, it runs like this:
as §1

Experiment [4] deals with E. coli ATCC25922. In words: Antibacterial activity in combination with linezolid (growth inhibition). The following applies: Escherichia coli, ATCC25922, compound at 50 μM; linezolid 128 μg/mL; OD625 23 h minus 1 h; read-out: residual growth of E. coli ATCC25922 (% of uninhibited control) with linezolid. As for the experimental part:
as §2, §3, §4, §5

For `Clc1ccc(COc2cc(CNCC3CNC3)cc(OCC3CC3)c2)c(Cl)c1` [Example 166], the activity at 25 µM in experiment [1] was not above 10%. Also, the activity at 50 µM in experiment [2] is not above 50%.
In the same order, the values of `CC(C)(C)c1ccc(COc2cc(CNCC3CNC3)cc(C(F)(F)F)c2)cc1` [Example 273] are not above 10% and not above 50%.
In the same order, the values of `C=CCOc1cc(/C=C/c2cccc(C#N)c2)cc(CNCC2CCNC2)c1` (stereo not drawn) [Example 305] are not above 10% and not above 50%.
For `CC(C)COc1cc(/C=C/c2ccc(C(N)=O)cc2)cc(CNCC2CCNC2)c1` (stereo not drawn) [Example 337], in that order: not above 10% and not above 50%.
For `Clc1ccc(COc2ccc(CNCC3CNC3)cc2)c(Br)c1` [Example 36], the activity at 25 µM in experiment [1] is not above 10%. Moreover, the activity at 50 µM in experiment [2] was not above 50%.
`Oc1ncc(/C=C/c2ccc(Cl)cc2Br)cc1CNCC1CCNC1` (stereo not drawn) [Example 494, 5-[(E)-2-(2-bromo-4-chloro-phenyl)vinyl]-3-[(pyrrolidin-3-ylmethylamino)methyl]pyridin-2-ol]: the activity at 25 µM in experiment [1] is not above 10%. Moreover, the activity at 50 µM in experiment [2] was not above 50%.
Take `C=CCOc1cc(/C=C/c2cncc(C(=O)N(C)C)c2)cc(CNCC2CCNC2)c1` (stereo not drawn) [Example 467]: the activity at 50 µM in experiment [3] and in experiment [2] was not above 50% each time.
Take `Clc1ccccc1COc1ccc(CNCC2CCNCC2)cc1` [Example 1]: the activity at 50 µM in experiment [3] and in experiment [4] was not above 50% throughout.
In the case of `CC(C)Oc1cc(C[N+](C)(C)CC2CCNC2)cc(OCc2ccc(Cl)cc2Br)c1` (stereo not drawn) [Example 167], the activity at 25 µM in experiment [1] was not above 10%. For the same molecule, the activity at 50 µM in experiment [2] was not above 50%.
Consider `C[N+](C)(Cc1cc(OCCc2c[nH]cn2)cc(OCc2ccc(Cl)cc2Br)c1)CC1CCNC1` (stereo not drawn) [Example 404], for which the activity at 25 µM in experiment [1] is not above 10%. Besides, the activity at 50 µM in experiment [2] is not above 50%.
For `CC(C)COc1ccc(/C=C/c2ccc(Cl)cc2Br)cc1CNCC1CNC1` [Example 432], in experiment [1], the activity at 25 µM was not above 10%. Further, the activity at 50 µM in experiment [2] was not above 50%.
For the molecule `C[N+](C)(Cc1cc(OCCc2c[nH]cn2)cc(OCc2ccc(Cl)cc2Br)c1)CC1CNC1` [Example 389], the activity at 25 µM in experiment [1] is not above 10%. In addition, the activity at 50 µM in experiment [2] is not above 50%.
Turning to `CC(C)COc1cc(/C=C/c2cccnc2)cc(CNCC2CCNC2)c1` (stereo not drawn) [Example 332], in experiment [1], the activity at 25 µM is not above 10%. The activity at 50 µM in experiment [3] and in experiment [2] was not above 50% in each case.
Regarding `C=CCOc1cc(/C=C/c2ccc(Cl)cc2Br)cc(C(=O)NCCNC(=O)C2CNC2)c1` [Example 454], the activity at 25 µM in experiment [1] is not above 10%. Moreover, the activity at 50 µM in experiment [2] was not above 50%.
In the same order, the values of `Clc1ccc(COc2ccc(CNCC3CCNC3)cc2)c(Br)c1` (stereo not drawn) [Example 63] are not above 10% and not above 50%.
Consider `NCC1CCC(CNCc2cccc(OCc3ccc(Cl)cc3Br)c2)N1` (stereo not drawn) [Example 192], for which the activity at 25 µM in experiment [1] is not above 10%. The activity at 50 µM in experiment [3] and in experiment [2] was not above 50% in each case.
In the case of `Clc1ccc(COc2cc(CNCC3CCNC3)cc(OCCc3c[nH]cn3)c2)c(Br)c1` (stereo not drawn) [Example 251], in experiment [1], the activity at 25 µM is not above 10%. In experiment [2], the activity at 50 µM was not above 50%.

For the origin of these results see patent US10464896B2, “Efflux-pump inhibitors and therapeutic uses thereof” (Basilea Pharmaceutica International AG, priority 2015, dated 2019).
